We go through 29 compounds from US6610689B2, “HIV protease inhibitors based on amino acid derivatives” (priority 2001, dated 2003).

A value given as a limit tells only on which side of the number the result lay.

The target in one test is T1, HIV protease (Human immunodeficiency virus type 1 group M subtype B, UniProt P04585).
T1 construct: A third viral enzyme known as protease then cleaves the polyproteins
Description: Enzymatic Assay for Determining the Inhibition Constant (Ki) of Synthetic Compounds Targeting the HIV Protease (fluorometric FRET assay). The format is biochemical.
Conditions: not given
The essentials: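 Ki obtained via the Henderson equation from enzyme velocities with and without compound, accounting for substrate concentration and Km. Activity followed by FRET fluorescence from cleavage of a substrate flanked by EDANS donor and DABCYL acceptor.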
By Ki is commonly meant the equilibrium dissociation constant of an inhibitor or competing ligand from its target. In the case of `Cc1ccc(S(=O)(=O)N(CC(C)C)[C@H](CO)CCCCNC(=O)[C@H](Cc2ccccn2)NC(=O)OC(C)(C)C)cc1` [Example 134, (2S,2′S) 2-N-Isobutyl-2-N-(4-methylbenzenesulfonyl)-6-N-(N′α-tert-butoxycarbonyl-S-2-pyridylalanyl)-2,6-diaminohexanol], the Ki came to 0.03 µM.
The same measure, in the same setting: in the case of `Cc1ccc(S(=O)(=O)N(CC(C)C)[C@@H](CCCCNC(=S)[C@H](Cc2ccccc2)NC(=S)c2ccccc2)C(=O)O)cc1` [Example 77, Nα-Isobutyl-Nα-(4-methylbenzenesulfonyl)-Nε-(N′α-thiobenzoyl-L-thiophenylalanyl)-L-lysine] it was 0.212 µM; in that of `COc1ccc(CC(=O)N[C@@H](Cc2c[nH]c3ccccc23)C(=O)NCCCC[C@@H](C(=O)O)N(CC(C)C)S(=O)(=O)c2ccc(C)cc2)cc1` [Example 164, Nα-Isobutyl-Nα-(4-methylbenzenesulfonyl)-Nε-[N′α-(4-methoxyphenylacetyl)-L-tryptophanyl]-L-lysine], 0.00032 µM.
Still for that read-out and setting: in the case of `Cc1ccc(S(=O)(=O)N(CC(C)C)[C@@H](CCCCNC(=O)[C@H](Cc2ccccc2)NS(=O)(=O)c2cccs2)C(=O)NO)cc1` [Example 59, Nα-Isobutyl-Nα-(4-methylbenzenesulfonyl)-Nε-[N′α-(2-thiophenesulfonyl)-L-phenylalanyl]-L-lysine N-hydroxylamide] it was 0.013 µM; in that of `CC(C)CN([C@@H](CCCCNC(=O)[C@H](Cc1c[nH]c2ccccc12)NS(=O)(=O)c1ccc(N)cc1)C(=O)O)S(=O)(=O)c1ccc(N)cc1` [Example 5, Nα-Isobutyl-Nα-(4-aminobenzenesulfonyl)-Nε-[N′α-(4-aminobenzenesuifonyl)-L-tryptophanyl]-L-lysine], 0.000459 µM.
Still for that read-out and setting: under `COc1ccc(S(=O)(=O)N(CC2CCCC2)[C@H](CO)CCCCNC(=O)[C@H](Cc2c[nH]c3ccccc23)NC(=O)OC(C)(C)C)cc1` [Example 153, (2S,2′S) 2-N-Cyclopentylmethyl-2-N-(4-methoxybenzenesulfonyl)-6-N-(N′α-tert-butoxycarbonyl-S-tryptophanyl)-2,6-diaminohexanol] stands 0.024 µM; under `COc1ccc(CN(CC(=O)NCCCC[C@@H](CO)N(CC(C)C)S(=O)(=O)c2ccc(N)cc2)c2ccccc2)cc1` [Example 176, (2S) 2-N-(4-Aminobenzenesulfonyl)-2-N-isobutyl-6-N-[N′α-(4-methoxybenzyl)-N′α-phenylglycyl]-2,6-diaminohexanol], 0.0024 µM.
In turn, `Cc1ccc(S(=O)(=O)N[C@H](Cc2ccccc2)C(=O)NCCCC[C@@H](C(=O)O)N(CC(C)C)S(=O)(=O)c2ccc(C)cc2)cc1` [Example 7, Nα-Isobutyl-Nα-(4-methylbenzenesulfonyl)-Nε-[N′α-(4-methylbenzenesulfonyl)-D-phenylalanyl]-L-lysine] registered a Ki of 0.12 µM.
On to `Cc1ccc(S(=O)(=O)N(CC(C)C)[C@@H](CCCCNC(=O)CNc2cnc3ccccc3c2)C(=O)O)cc1` [Example 113, Nα-Isobutyl-Nα-(4-methylbenzenesulfonyl)-Nε-[N′α-(3-quinolyl)glycyl]-L-lysine], for which the Ki turned out to be 0.012 µM.
For `Cc1ccc(S(=O)(=O)N[C@@H](Cc2c[nH]c3ccccc23)C(=S)NCCCC[C@@H](C(=O)O)N(CC(C)C)S(=O)(=O)c2ccc(C)cc2)cc1` [Example 73, Nα-Isobutyl-Nα-(4-methylbenzenesulfonyl)-Nε-[N′α-(4-methylbenzenesulfonyl)-L-thiotryptophanyl]-L-lysine], the inhibitory constant (Ki) was found to be 0.014 µM.
On to `Cc1ccc(S(=O)(=O)N(CC(C)C)[C@@H](CCCCNC(=O)[C@H](Cc2ccccc2)NC(=O)c2ccccc2)C(=O)O)cc1` [Example 50, Nα-Isobutyl-Nα-(4-methylbenzenesulfonyl)-Nε-(N′α-benzoyl-L-phenylalanyl)-L-lysine], for which the affinity, expressed as Ki, was 0.002 µM.
Turning to `Cc1ccc(S(=O)(=O)N(CC(C)C)[C@@H](CCCCNC(=O)[C@H](Cc2ccccc2)NC(=O)OC(C)(C)C)C(=O)O)cc1` [Example 78, Nα-Isobutyl-Nα-(4-methylbenzenesulfonyl)-Nε-(N′α-tert-butoxycarbonyl-L-phenylalanyl)-L-lysine], the affinity, expressed as Ki, was 0.0025 µM.
Still for that read-out and setting: under `CC(=O)N[C@@H](Cc1ccccc1)C(=O)NCCCC[C@@H](C(=O)O)N(CC(C)C)S(=O)(=O)c1ccc(C)cc1` [Example 30, Nα-Isobutyl-Nα-(4-methylbenzenesulfonyl)-Nε-(N′α-acetyl-L-phenylalanyl)-L-lysine] stands 0.000483 µM; under `Cc1ccc(S(=O)(=O)N(CC(C)C)[C@@H](CCCCNC(=S)[C@H](Cc2c[nH]c3ccccc23)NS(=O)(=O)c2ccccc2)C(=O)O)cc1` [Example 74, Nα-Isobutyl-Nα-(4-methylbenzenesulfonyl)-Nε-(N′α-benzenesulfonyl-L-thiotryptophanyl)-L-lysine], 0.0048 µM.
Same read-out and setting: under `CC(C)COC(=O)N[C@@H](Cc1c[nH]c2ccccc12)C(=O)NCCCC[C@@H](CO)N(CC(C)C)S(=O)(=O)c1ccc(N)cc1` [Example 193, (2S,2′S) 2-N-(4-Aminobenzenesulfonyl)-2-N-isobutyl-6-N-(N′α-isobutoxycarbonyl-S-tryptophanyl)-2,6-diaminohexanol] stands 0.0041 µM; under `Cc1ccc(S(=O)(=O)N(CC(C)C)[C@@H](CCCCNC(=O)[C@H](CC(N)=O)NC(=O)C(C)(C)C)C(=O)O)cc1` [Example 62, Nα-Isobutyl-Nα-(4-methylbenzenesulfonyl)-Nε-(N′α-pivaloyl-L-asparagyl)-L-lysine], 0.212 µM; under `CC(=O)N[C@@H](Cc1c[nH]c2ccccc12)C(=O)NCCCC[C@@H](C(=O)O)N(CC(C)C)S(=O)(=O)c1ccc(C)cc1` [Example 99, Nα-Isobutyl-Nα-(4-methylbenzenesulfonyl)-Nε-(N′α-acetyl-L-tryptophanyl)-L-lysine], 0.000438 µM.
Still for that read-out and setting: in the case of `CC(C)CN([C@H](CO)CCCCNC(=O)[C@H](Cc1ccccc1)NC(=O)N1CCOCC1)S(=O)(=O)c1ccc(N)cc1` [Example 180, (2S,2′S) 2-N-(4-Aminobenzenesulfonyl)-2-N-isobutyl-6-N-[N′α-(4-morpholinecarbonyl)-S-phenylalanyl]-2,6-diaminohexanol] it was 0.0024 µM; in that of `CC(=O)Nc1ccc(S(=O)(=O)N[C@@H](Cc2ccccc2)C(=O)NCCCC[C@@H](CO)N(CC(C)C)S(=O)(=O)c2ccc(C)cc2)cc1` [Example 121, (2S,2′S) 2-N-Isobutyl-2-N-(4-methylbenzenesulfonyl)-6-N-[N′α-(4-acetylaminobenzenesulfonyl)-S-phenylalanyl]-2,6-diaminohexanol], 0.023 µM.
Compound `CC(C)CN([C@H](CO)CCCCNC(=O)[C@H](Cc1ccccc1)NS(=O)(=O)c1ccc(N)cc1)S(=O)(=O)c1ccc(N)cc1` [Example 195, (2S,2′S) 2-N-(4-Aminobenzenesulfonyl)-2-N-isobutyl-6-N-[N′α-(4-aminobenzenesulfonyl)-S-phenylalanyl]-2,6-diaminohexanol] displayed an inhibition constant (Ki) of 0.02 µM.
`Cc1ccc(S(=O)(=O)N(CC(C)C)[C@H](CO)CCCCNC(=O)[C@H](Cc2c(F)c(F)c(F)c(F)c2F)NC(=O)OC(C)(C)C)cc1` [Example 143, (2S,2′S) 2-N-Isobutyl-2-N-(4-methylbenzenesulfonyl)-6-N-(N′α-tert-butoxycarbonyl-S-pentafluorophenylalanyl)-2,6-diaminohexanol] registered a Ki greater than 0.3 µM.
Turning to `Cc1ccc(S(=O)(=O)N[C@@H](Cc2ccccc2)C(=O)NCCCC[C@@H](C(=O)O)N(CC(C)C)S(=O)(=O)c2ccccc2)cc1` [Example 200, Nα-Benzenesulfonyl-Nα-isobutyl-Nε-[N′α-(4-methylbenzenesulfonyl)-L-phenylalanyl]-L-lysine], the inhibition constant Ki turned out to be 0.031 µM.
Take `Cc1ccc(S(=O)(=O)N[C@@H](Cc2c[nH]c3ccccc23)C(=O)NCCCC[C@@H](C(=O)O)N(CC(C)C)S(=O)(=O)c2ccc(N)cc2)cc1` [Example 43, Nα-(4-Aminobenzenesulfonyl)-Nα-isobutyl-Nε-[N′α-(4-methylbenzenesulfonyl)-L-tryptophanyl]-L-lysine]: the Ki was found to be 0.00056 µM.

Staying with this test, now noted: Anti-protease activity of Ne-amino acid substituted L-lysine derivatives and analogs of formula I; read-out: Ki.
Regarding `Cc1ccc(S(=O)(=O)N(CC(=O)NCCCC[C@@H](C(=O)O)N(CC(C)C)S(=O)(=O)c2ccc(C)cc2)CC(C)C)cc1` [Example 55, Nα-Isobutyl-Nα-(4-methylbenzenesulfonyl)-Nε-[N′α-isobutyl-N′α-(4-methylbenzenesulfonyl)-glycyl]-L-lysine], the Ki turned out to be 0.014 µM.
On the same count and under the same terms, in the case of `Cc1ccc(CSC[C@H](NC(=O)OC(C)(C)C)C(=O)NCCCC[C@@H](C(=O)O)N(CC(C)C)S(=O)(=O)c2ccc(C)cc2)cc1` [Example 83, Nα-Isobutyl-Nα-(4-methylbenzenesulfonyl)-Nε-[N′α-tert-butoxycarbonyl-S-(4-methylbenzyl)-L-cysteinyl]-L-lysine] it was 0.062 µM.
Same read-out and setting: under `Cc1ccc(S(=O)(=O)N(CC(C)C)[C@@H](CCCCNC(=O)[C@H](Cc2c[nH]c3ccccc23)NS(=O)(=O)c2ccc(N)cc2)C(=O)O)cc1` [Example 12, Nα-Isobutyl-Nα-(4-methylbenzenesulfonyl)-Nε-[N′α-(4-aminobenzenesulfonyl)-L-tryptophanyl]-L-lysine] stands 0.000311 µM.

The same test, now with this note: Table 1, compounds of formula I; read-out: Ki (anti-protease activity).
As to “(2S,2′S) 2-N-Isobutyl-2-N-(4-methylbenzenesulfonyl)-6-N-(N′α-tert-butoxycarbonyl-S-4-thiazolylalanyl)-2,6-diaminohexanol [Example 137]”, the Ki turned out to be 0.096 µM.
The same measure, in the same setting: in the case of `Cc1ccc(S(=O)(=O)N(CC(C)C)[C@H](CO)CCCCNC(=O)[C@H](Cc2ccncc2)NC(=O)OC(C)(C)C)cc1` [Example 136, (2S,2′S) 2-N-Isobutyl-2-N-(4-methylbenzenesulfonyl)-6-N-(N′α-tert-butoxycarbonyl-S-4-pyridylalanyl)-2,6-diaminohexanol] it was 0.11 µM; in that of `Cc1ccc(S(=O)(=O)N(CC(C)C)[C@H](CO)CCCCNC(=O)[C@H](Cc2ccccc2)NS(=O)(=O)c2ccc(F)cc2)cc1` [Example 125, (2S,2′S) 2-N-Isobutyl-2-N-(4-methylbenzenesulfonyl)-6-N-[N′α-(4-fluorobenzenesulfonyl)-S-phenylalanyl]-2,6-diaminohexanol], 0.039 µM.
